Test results: ChEMBL document CHEMBL6078614, “Privileged small molecules against neglected tropical diseases: A perspective from structure activity relationships” (Eur J Med Chem, 2024)
≈ marks a conversion by molar mass, not a printed value. One block for each molecule: values may come before it.

What was measured:
[1] = test system: Trypanosoma brucei rhodesiense; assay: Antitrypanosomal activity against Trypanosoma brucei rhodesiense; type: functional, organism-based
Leishmania major [2] = assay: Antileishmanial activity against Leishmania major IR-173 promastigotes assessed as inhibition of parasite growth incubated for 48 hrs by resazurin dye based assay; type: functional, organism-based; settings: IR-173, 48 h
Leishmania major [3] = assay: Antileishmanial activity against Leishmania major IR-173 promastigotes assessed as inhibition of parasite growth incubated for 24 hrs by resazurin dye based assay; type: functional, organism-based; settings: IR-173, 24 h
Trypanosoma cruzi [4] = assay: Antitrypanosomal activity against trypomastigote form of Trypanosoma cruzi Y assessed as inhibition of parasite viability; type: functional, organism-based
Leishmania major [5] = assay: Antileishmanial activity against Leishmania major; type: functional, organism-based
Trypanosoma cruzi [6] = assay: Antiprotozoal activity against Trypanosoma cruzi epimastigotes assessed as reduction in parasite growth; type: functional, organism-based
Leishmania amazonensis = assay: Antileishmanial activity against Leishmania amazonensis amastigotes assessed as parasite growth inhibition; type: functional, organism-based
Leishmania donovani [7] = assay: Antileishmanial activity against Leishmania donovani promastigotes measured after 48 hrs by MTT assay; type: functional, organism-based
Trypanosoma brucei = assay: Antitrypanosomal activity against Trypanosoma brucei; type: functional, organism-based
Phosphodiesterase 4 = Phosphodiesterase 4 (Homo sapiens, UniProt P27815+Q08499+Q07343+Q08493); assay: Inhibition of PDE4 (unknown origin); type: protein assay
Trypanosoma cruzi [8] = assay: Antitrypanosomal activity against Trypanosoma cruzi Tulahuen amastigotes; type: functional, organism-based
Leishmania mexicana [9] = assay: Antileishmanial activity against Leishmania mexicana promastigotes assessed as reduction in parasite growth by alamar-blue staining based analysis; type: functional, organism-based
Leishmania mexicana [10] = assay: Antileishmanial activity against Leishmania mexicana promastigotes
Leishmania major [11] = assay: Antileishmanial activity against Leishmania major amastigotes assessed as inhibition of parasite growth incubated for 48 hrs by alamar blue reagent based ELISA; type: functional, organism-based
Leishmania chagasi = assay: Antileishmanial activity against Leishmania chagasi; type: functional, organism-based
Entamoeba histolytica = assay: Antiparasitic activity against Entamoeba histolytica; type: functional, organism-based
Leishmania donovani [12] = assay: Antileishmanial activity against amastigote form of Leishmania donovani infected in BALB/c mouse assessed as inhibition of parasite growth in spleen at 25 mg/kg, po measured after 5 days by geimsa staining based analysis relative to control; type: functional; design: scale not given: the % may be the effect or the level left; settings: time 5 day
L929 = assay: Cytotoxicity against mouse L929 cells assessed as reduction in cell viability; type: functional
Trypanosoma cruzi [13] = assay: Antitrypanosomal activity against trypomastigote form of Trypanosoma cruzi Y assessed as inhibition of parasite viability incubated for 24 hrs by light microscopy; type: functional, organism-based
Leishmania donovani [14] = assay: Antileishmanial activity against Leishmania donovani amastigotes infected in J774 macrophage assessed as inhibition of parasite growth incubated for 48 hrs by luciferase assay; type: functional, organism-based; settings: J774, 48 h
HepG2 = assay: Cytotoxicity against human HepG2 cells assessed as reduction in cell viability by MTT assay; type: functional
Leishmania infantum = assay: Inhibition of Leishmania infantum Arginase expressed in Escherichia coli BL21 (DE3) at 50 uM by enzymatic assay relative to control
[15] = Inhibition of Entamoeba histolytica O-acetylserine sulfhydrylase
Leishmania braziliensis = assay: Antileishmanial activity against Leishmania braziliensis; type: functional, organism-based
HeLa = assay: Cytotoxicity against human HeLa cells assessed as reduction in cell viability incubated for 24 hrs by MTT assay; type: functional
Leishmania major [16] = assay: Antileishmanial activity against Leishmania major promastigotes assessed as inhibition of parasite growth incubated for 48 hrs by resazurin dye based assay; type: functional, organism-based
Leishmania major [17] = assay: Antileishmanial activity against Leishmania major promastigotes assessed as inhibition of parasite growth; type: functional, organism-based

- IC50 (Trypanosoma cruzi [4]): 2100 nM
SMILES: Brc1ccc(-n2cc(C3=NCCS3)cn2)cc1

- IC50 (Trypanosoma cruzi [6]): 40 nM
SMILES: Cc1ccc(N2Cc3cc(NC(=O)N4CCN(c5cccc(C(F)(F)F)c5)CC4)ccc3C2=O)cc1

- EC50 (Trypanosoma brucei): 1.94 µM
SMILES: O=C(Cn1ccnc1[N+](=O)[O-])NCc1ccccc1 [BENZNIDAZOLE]

- pIC50 (Phosphodiesterase 4): 5.8
SMILES: COc1ccc(C2=NN(C(C)C)C(=O)C2(C)C)cc1-c1ccncc1

- IC50 (Leishmania major [5]): 27 µM
SMILES: O=[N+]([O-])c1ccc(-c2nnc(N3CCC(O)CC3)s2)s1

- EC50 (Trypanosoma cruzi [8]): 7200 nM
SMILES: COc1ccc2c(-c3ccnc(Nc4cccc(C#N)c4)n3)c(CO)nn2n1

- EC50 (Trypanosoma cruzi [8]): > 20000 nM
SMILES: NC(=O)Nc1cc2nc(-c3cccc(C(F)(F)F)c3)cn2cn1

- IC50 (Trypanosoma cruzi [4]): 400 nM
SMILES: Clc1ccc(-n2cc(C3=NCCS3)cn2)c(Cl)c1

- EC50 (Trypanosoma cruzi [8]): 80 nM
SMILES: O=C(Nc1cc2nc(-c3cccc(C(F)(F)F)c3)cn2cn1)N1CC[C@H](F)C1

- IC50 (Trypanosoma cruzi [6]): 50 nM
SMILES: O=C(Nc1ccc2c(c1)CN(c1ccc(Br)cc1)C2=O)N1CCN(c2ccc(F)cc2)CC1

- IC50 (Leishmania major [5]): 38.5 µg/mL
SMILES: Cc1sc(NC(=S)NC(=O)c2cccc(Cl)c2)nc1-c1ccccc1

- EC50 (Trypanosoma cruzi [8]): 20 nM
SMILES: Cc1nc(C)c(C(=O)Nc2ccc(F)c(-c3nc4ncc(-c5ccccc5Cl)cn4n3)c2)o1

- pIC50 (Phosphodiesterase 4): 6.8
SMILES: COc1ccc(C2=NN(C(C)C)C(=O)C2(C)C)cc1OCc1ccccc1

- EC50 (Trypanosoma cruzi [13]): 7 µM
SMILES: Cn1c(/C=C/C(=O)NO)ccc1/C=C/C(=O)c1cccc(Cl)c1
- CC50 (L929): 40 µM

- inhibition (Leishmania infantum): 69.2%
- IC50 (Leishmania chagasi): 30 µM
SMILES: COc1cccc(-c2nc3sccn3c2-c2ccnc(NCCNC(=O)Nc3cccc(C(F)(F)F)c3)n2)c1

- IC50 [15]: 140 µg/mL
SMILES: CC(C)(C)Nc1c(-c2cc3ccccc3n3nnnc23)nc2sc(C#N)cn12

- IC50 (Leishmania braziliensis): 9.37 µM
SMILES: CN1CCN(c2nn3c(-c4cccc([N+](=O)[O-])c4)nnc3c3ccccc23)CC1

- IC50 (Entamoeba histolytica): 220 nM
SMILES: COc1ccc2c(c1)c(CC(=O)O)c(C)n2C(=O)c1ccc(Cl)cc1 [INDOMETHACIN]

- IC50 (Leishmania braziliensis): 7.41 µM
SMILES: NNc1nc(-c2ccc(F)cc2)nc2ccccc12

- EC50 (Trypanosoma cruzi [8]): 7700 nM
SMILES: c1cncc(Nc2nccc(-c3cnn4ncccc34)n2)c1

- IC50 ([15]; read-out: IC50): 15 µM
SMILES: Cc1c(OCC(F)(F)F)ccnc1C[S+]([O-])c1nc2ccc([N+](=O)[O-])cc2[nH]1 (centres undefined)

- inhibition (Leishmania infantum): 67%
- IC50 (Leishmania chagasi): 32.4 µM
SMILES: O=C(NCCNc1nccc(-c2c(-c3cccc(O)c3)nc3sccn23)n1)c1ccc(N2CCOCC2)c(C(F)(F)F)c1

- pIC50 (Phosphodiesterase 4): 6.4
SMILES: COc1ccc(C2=NN(C(C)C)C(=O)C2(C)C)cc1-c1cccnc1

- IC50 (Leishmania major [5]): 68.9 µM
SMILES: O=[N+]([O-])c1ccc(-c2nnc(N3CCC(O)CC3)s2)o1

- IC50 (Trypanosoma cruzi [4]): 1900 nM
SMILES: Clc1ccc(-n2cc(C3=NCCS3)cn2)cc1Cl

- EC50 (Trypanosoma cruzi [8]): 730 nM
SMILES: O=C(Nc1cc2nc(-c3ccc(F)c(F)c3)cn2cn1)N1CC[C@H](F)C1

- IC50 (Entamoeba histolytica): 140 nM
SMILES: COc1ccc2cc([C@H](C)C(=O)O)ccc2c1 [NAPROXEN]

- IC50 (Leishmania major [5]): 38.5 µg/mL
SMILES: COc1ccc(C(=O)NC(=S)Nc2nc(-c3ccccc3)c(C)s2)cc1

- IC50 ([15]; read-out: IC50): 11 µM
SMILES: O=[N+]([O-])c1ccc2nc([S+]([O-])Cc3ccccn3)[nH]c2c1 (centres undefined)

The remaining lines, values behind:

SMILES: COC(=O)c1nc(NC(=O)c2cc(NC(=O)c3nc(NC(=O)OC(C)(C)C)sc3C(C)C)cn2C)sc1C(C)C
- EC50 [1]: 11.8 µM

SMILES: COc1cc(/C=C/C(=O)CC(=O)/C=C/c2ccc(O)c(OC)c2)ccc1O [CURCUMIN]
- EC50 [1]: 4.85 µM

SMILES: Cn1ccnc1-c1nnc(-c2ccc([N+](=O)[O-])s2)s1
- IC50 (Leishmania major [2]): 7.1 µg/mL (≈ 24.2 µM)
- IC50 (Leishmania major [3]): 11.2 µg/mL (≈ 38.2 µM)

SMILES: Cc1ccc(C(=O)NC(=S)NCc2ccco2)cc1
- IC50 (Leishmania major [5]): 38.5 µg/mL

SMILES: O=C1c2ccccc2C(=O)N1CCn1cc(-c2ccccc2)nn1
- IC50 (Leishmania amazonensis): 125 µM

SMILES: Cc1cccnc1-n1cccc1C(=O)c1ccc(F)cc1
- IC50 (Leishmania amazonensis): 16.9 µM
- IC50 (Leishmania donovani [7]): 7.78 µM

SMILES: O=c1[nH]c2cc(Cl)c(Cl)cc2c(=O)n1-c1ccccc1
- IC50 (Leishmania mexicana [9]): 6.05 µM

SMILES: CC1CS(=O)(=O)CCN1/N=C/c1ccc([N+](=O)[O-])o1 (centres undefined) [NIFURTIMOX]
- IC50 (Leishmania mexicana [10]): 9.32 µM

SMILES: CC(C)c1ccc(S(=O)(=O)/N=N/Cc2ccc([N+](=O)[O-])o2)cc1
- IC50 (Leishmania major [11]): 4.71 µM

SMILES: N=C(N)N/N=C/c1ccccc1-c1ccccc1
- IC50 (Leishmania chagasi): 4.97 µM

SMILES: COc1ccc(/C=N/NC(N)=S)cc1
- IC50 (Leishmania chagasi): 1.6 µM

SMILES: N/C(S)=N/N=C/c1cccc(Cl)c1Cl
- IC50 (Leishmania chagasi): 2.2 µM

SMILES: N=C(N)N/N=C/c1ccc2ccccc2n1
- IC50 (Leishmania chagasi): 0.6 µM

SMILES: NCCCC(N)(C(=O)O)C(F)F (centres undefined) [EFLORNITHINE]
- EC50 (Trypanosoma brucei): 13 µM

SMILES: CN1C(=N)N/C(=C/c2c[nH]c3cc(Br)ccc23)C1=O
- IC50 (Trypanosoma cruzi [4]): 62000 nM

SMILES: COc1ccc2nc(-c3ccccc3)cnc2c1
- IC50 (Leishmania mexicana [9]): 50.9 µM

SMILES: CC(C)(Oc1ccc(Cl)cc1)C(=O)O [CLOFIBRIC ACID]
- IC50 (Entamoeba histolytica): 145 nM

SMILES: O=C(Cn1nnc2ccccc21)NNCc1ccccc1Cl
- Activity (Leishmania donovani [12]): 89.4%

SMILES: O=C(O)Cc1ccccc1Nc1c(Cl)cccc1Cl [DICLOFENAC]
- IC50 (Entamoeba histolytica): 220 nM

SMILES: O=[N+]([O-])c1c(CS(=O)(=O)c2ccccc2)nc2c(Sc3ccc(Cl)cc3)cc(Cl)cn12
- IC50 (Leishmania donovani [14]): 1.3 µM
- CC50 (HepG2): > 100 µM

SMILES: Cc1ncc([N+](=O)[O-])n1CCOC(=O)NC1CCCCC1
- IC50 (Entamoeba histolytica): 460 nM

SMILES: c1ccc(-c2cnc3c(n2)CCCC3)cc1
- IC50 (Leishmania mexicana [9]): 39.8 µM

SMILES: O=[N+]([O-])c1ccc(-c2nnc(NCCCO)s2)o1
- IC50 (Leishmania major [5]): 18 µM

SMILES: CCCCCCCCCc1cn(CCN2CCN(C(=O)c3c(C)nc4cc(C)ccn34)CC2)nn1
- IC50 (Leishmania major [11]): 15.1 µM

SMILES: NNc1nc(-c2ccccc2Cl)nc2ccccc12
- IC50 (Leishmania braziliensis): 8.43 µM

SMILES: O=C(Nc1nc2cc(Cl)ccc2o1)C(c1ccccc1)c1ccccc1
- IC50 (Leishmania donovani [14]): 9.1 µM

SMILES: CCc1ccc(-n2cc(CCN3CCN(C(=O)c4c(C)nc5cc(C)ccn45)CC3)nn2)cc1
- IC50 (Leishmania major [11]): 15.1 µM

SMILES: Cc1ccn2c(C(=O)N3CCN(CCc4cn(-c5ccc(Br)cc5)nn4)CC3)c(C)nc2c1
- IC50 (Leishmania major [11]): 15.1 µM

SMILES: c1ccc(-c2cnc3ccccc3n2)cc1
- IC50 (Leishmania mexicana [9]): 12.5 µM

SMILES: CC(C)Cc1ccc(C(C)C(=O)O)cc1 (centres undefined) [IBUPROFEN]
- IC50 (Entamoeba histolytica): 172 nM

SMILES: Cc1ccn2c(C(=O)N3CCN(CCn4cc(-c5ccc(C(C)(C)C)cc5)nn4)CC3)c(C)nc2c1
- IC50 (Leishmania major [11]): 15.1 µM

SMILES: Cc1ccn2c(C(=O)N3CCN(CCc4cn(-c5cccc(Cl)c5)nn4)CC3)c(C)nc2c1
- IC50 (Leishmania major [11]): 15.1 µM
- CC50 (HeLa): 62.7 µM

SMILES: C[C@@H]1[C@H](O)[C@@H](C)/C=C/C=C/C=C/C=C/C=C/C=C/C=C/[C@H](O[C@@H]2O[C@H](C)[C@@H](O)[C@H](N)[C@@H]2O)C[C@@H]2O[C@](O)(C[C@@H](O)C[C@@H](O)[C@H](O)CC[C@@H](O)C[C@@H](O)CC(=O)O[C@H]1C)C[C@H](O)[C@H]2C(=O)O [AMPHOTERICIN B]
- IC50 (Leishmania major [16]): 0.19 µg/mL (≈ 0.206 µM)

SMILES: NNS(=O)(=O)c1ccc([N+](=O)[O-])o1
- IC50 (Leishmania major [11]): 5.75 µM
- IC50 (Leishmania major [17]): 1850 nM

SMILES: CCCCCCCCCCCCCCCCOP(=O)([O-])OCC[N+](C)(C)C [MILTEFOSINE]
- Activity (Leishmania donovani [12]): >98%

SMILES: N=C(N)N/N=C/c1cccc(Cl)c1Cl
- IC50 (Leishmania chagasi): 7.27 µM

SMILES: N=C(S)N/N=C/c1ccc(C(F)(F)F)cc1
- IC50 (Leishmania chagasi): 3.2 µM
